{"source": "paper PMC8123395", "about": "“Aggregation and Its Influence on the Bioactivities of a Novel Antimicrobial Peptide, Temporin-PF, and Its Analogues” (International Journal of Molecular Sciences, 2021)", "key": {"[1]": {"test": "Circular dichroism, helix content by BeStSel", "type": "physicochemical", "conditions": "CD, room temperature, BeStSel analysis", "experimental": "Figure 8 CD spectra of TPF and the analogs (50 μM) prepared in 10 mM NH4AC, 50% TFE/10 mM NH4AC, 3 mM DPPG/DPPE (88:12) SUVs, and 3 mM DPPC SUVs. The spectra were averaged over three consecutive scans, and the solvent CD signal was subtracted.\nThe determination of the secondary structure of peptides was conducted using a JASCO J-815 CD Spectropolarimeter (JASCO Inc., Tokyo, Japan) as described in the previous study. Then, 50 μM of each peptide sample was prepared in the aqueous 10 mM ammonium acetate (NH4Ac; Sigma-Aldrich, Gillingham, UK) buffer, 50% (v/v) 2,2,2-trifluoroethanol (TFE; Sigma-Aldrich, Gillingham, UK), and 3 mM DPPG:DPPE (88:12) and DPPC small unilamellar liposomes/vesicles (SUVs) that were used to mimic the bacterial and mammalian erythrocyte cell membranes, respectively. The liposome was hydrated in deionized water and then sonicated for 15 min with an interval 30 s in an ice bath for generating SUVs. Samples were loaded in a 1-mm thickness quartz cuvette and analyzed at room temperature with the following parameters: scan range of 190–250 nm, scanning speed of […], 1 nm bandwidth, and 0.5 nm data pitch. The spectra were obtained by averaging data from three scans. The CD spectra were analyzed by BeStSel (http://bestsel.elte.hu/index.php, accessed on 16 May 2020) for the determination of secondary structure content."}, "[2]": {"test": "RP-HPLC retention order of mixed peptides (overall hydrophobicity)", "type": "physicochemical", "conditions": "peptides mixed in equal ratio and subjected to RP-HPLC; Supplementary Figure S4", "experimental": "All peptides were chemically synthesized and purified by RP-HPLC. They were further mixed with an equal ratio and subjected to RP-HPLC. […] Subsequently, all peptides (1 mg/mL) were dissolved in a series of widely used culture media (Figure 2).\nN-terminal Phe of temporin was believed to participate in the packaging of “head-tail” oligomerization. […] Furthermore, Trp/D-Trp substitution carried out on des-Phe1 TPF enhanced the peptide aggregation. […] It may be related to the decrease of the helical content; however, it could also be caused by the change of aggregation effects. Previous studies have shown that AMPs with strong antimicrobial activity are present as monomers in an aqueous solution and aggregate on the membrane to disrupt the bacterial cell membrane. […] It has been proposed that some aggregation effects of AMPs could limit the interaction of the peptide with its target, thereby reducing the antibacterial efficacy. In the previous study, the zipper-like motif is associated with the bioactivities as well as the assembly in the LPS micelles, which was considered to arise from hydrophobic interactions mainly. However, the overall hydrophobicity of Trp/D-Trp substituted analogs is less than that of des-Phe1 TPF, as estimated by RP-HPLC analysis. We hypothesize that the enhanced assembly seen for Trp/D-Trp substituted analogs might be related to the increased content of aromatic residues, because it could promote the strength of π stacking or cation-π type interaction. However, the true relation has not been fully clarified so far, and the capability of aromatic moieties to promote aggregation could also be affected by the hydrophobicity, position, and the neighboring side chains in their three-dimensional conformation."}, "[3]": {"test_system": "Klebsiella pneumoniae (ATCC 43816)", "type": "cell-based", "conditions": "ATCC 43816, pH 7.4", "experimental": "(§1) The minimum inhibitory concentration (MIC) and minimum bactericidal concentration (MBC) of peptides against the selected microorganisms were determined using the broth-dilution method, as described in the previous study. […] were used in the assay: Gram-positive bacteria Staphylococcus aureus (NCTC 10788), Enterococcus faecalis (NCTC 12697), and methicillin-resistant S. aureus (MRSA) (NCTC 12493); Gram-negative bacteria Escherichia coli (NCTC 10418), Pseudomonas aeruginosa (ATCC 27853), and Klebsiella pneumoniae (ATCC 43816). All the strains were cultured in Mueller Hinton Broth (MHB), pH 7.4 (Oxiod, Basingstoke, UK). Each peptide was tested at the final concentration from 128 to 1 µM in two-fold dilution. Norfloxacin was applied as the positive control."}, "[4]": {"test_system": "Pseudomonas aeruginosa (ATCC 27853)", "type": "cell-based", "conditions": "ATCC 27853, pH 7.4", "experimental": "as §1"}, "[5]": {"test_system": "Enterococcus faecalis (NCTC 12697)", "type": "cell-based", "conditions": "NCTC 12697, pH 7.4", "experimental": "as §1"}, "[6]": {"test_system": "Escherichia coli (NCTC 10418)", "type": "cell-based", "conditions": "NCTC 10418, pH 7.4", "experimental": "as §1"}, "[7]": {"test_system": "Staphylococcus aureus (NCTC 10788)", "type": "cell-based", "conditions": "NCTC 10788, pH 7.4", "experimental": "as §1"}, "[8]": {"test_system": "methicillin-resistant S. aureus (MRSA) (NCTC 12493)", "type": "cell-based", "conditions": "NCTC 12493, pH 7.4", "experimental": "as §1"}, "[9]": {"test": "Observation of aggregation: turbidity (absorbance at 600 nm) in media and salt solutions", "type": "physicochemical", "conditions": "peptide 1 mg/mL; 0.25, 0.5 and 1 M Na2HPO4, CaCl2 or MgCl2; absorbance 600 nm", "experimental": "Figure 3 The absorbance of TPF and the analogs prepared in (a) a series of culture media, including PBS, RPMI1640, RPMI1640 with 10% FBS, TSB, and MHB; 0.25, 0.5, and 1 M of (b) Na2HPO4, (c) CaCl2, and (d) MgCl2 solutions. Peptide solutions were prepared from 1 mg/mL, and the wavelength was set as 600 nm. The error bar represents the standard deviation (SD) with three replicates.\nThe method was followed the previous study with modifications. The purified peptides were prepared at 10 mg/mL in water and subsequently diluted with different solutions, including PBS, RPMI1640, RPMI1640 with 10% FBS, TSB, MHB, Na2HPO4 (0.25, 0.5, and 1 M), CaCl2 (0.25, 0.5, and 1 M), and MgCl2 (0.25, 0.5, and 1 M), in a 96-well plate to achieve the final concentration of 1 mg/mL. The turbidity of each well was detected using the absorbance at 600 nm by a plate reader. The peptides dissolved in water were applied as negative control."}}, "note": "No end group written: not given here."}
{"substance": "LPLIAGLFGKIF-NH2 [des-Phe1 TPF]", "values": [{"measurement": "Helix Content % DPPC", "setting": "[1]; 50 μM peptide in 3 mM DPPC SUVs (erythrocyte membrane mimic)", "value": 16.4, "unit": "%"}, {"measurement": "Helix Content % DPPG/DPPE", "setting": "[1]; 50 μM peptide in 3 mM DPPG/DPPE (88:12) SUVs (bacterial membrane mimic)", "value": 26.7, "unit": "%"}, {"measurement": "Helix Content % 50% TFE", "setting": "[1]; 50 μM peptide in 50% TFE/10 mM NH4AC, three scans averaged", "value": 37.7, "unit": "%"}, {"measurement": "order of retention time (RP-HPLC, used as estimate of overall hydrophobicity)", "setting": "[2]", "value": "TPF> des-Phe1 TPF> W-des-Phe1 TPF> dW-des-Phe1 TPF"}, {"measurement": "MBC", "setting": "[3]", "value": 128, "unit": "µM"}, {"measurement": "MIC", "setting": "[3]", "value": 128, "unit": "µM"}, {"measurement": "MBC", "setting": "[4]", "value": "> 128", "unit": "µM"}, {"measurement": "MIC", "setting": "[4]", "value": "> 128", "unit": "µM"}, {"measurement": "MBC", "setting": "[5]", "value": 32, "unit": "µM"}, {"measurement": "MIC", "setting": "[5]", "value": 32, "unit": "µM"}, {"measurement": "MBC", "setting": "[6]", "value": 128, "unit": "µM"}, {"measurement": "MIC", "setting": "[6]", "value": 64, "unit": "µM"}, {"measurement": "MBC", "setting": "[7]", "value": 16, "unit": "µM"}, {"measurement": "MIC", "setting": "[7]", "value": 16, "unit": "µM"}, {"measurement": "MBC", "setting": "[8]", "value": 32, "unit": "µM"}, {"measurement": "MIC", "setting": "[8]", "value": 32, "unit": "µM"}, {"measurement": "aggregation (salting-out) in salt solutions", "setting": "[9]", "value": "low degree of capability for aggregation"}]}
